# How the values were obtained:
# [1] = biological target: 5-hydroxytryptamine receptor 2A (Homo sapiens, UniProt P28223)
# [2] = biological target: T1, Muscarinic acetylcholine receptor M1 (Homo sapiens, UniProt P11229)
# T1 sequence (P11229 whole entry): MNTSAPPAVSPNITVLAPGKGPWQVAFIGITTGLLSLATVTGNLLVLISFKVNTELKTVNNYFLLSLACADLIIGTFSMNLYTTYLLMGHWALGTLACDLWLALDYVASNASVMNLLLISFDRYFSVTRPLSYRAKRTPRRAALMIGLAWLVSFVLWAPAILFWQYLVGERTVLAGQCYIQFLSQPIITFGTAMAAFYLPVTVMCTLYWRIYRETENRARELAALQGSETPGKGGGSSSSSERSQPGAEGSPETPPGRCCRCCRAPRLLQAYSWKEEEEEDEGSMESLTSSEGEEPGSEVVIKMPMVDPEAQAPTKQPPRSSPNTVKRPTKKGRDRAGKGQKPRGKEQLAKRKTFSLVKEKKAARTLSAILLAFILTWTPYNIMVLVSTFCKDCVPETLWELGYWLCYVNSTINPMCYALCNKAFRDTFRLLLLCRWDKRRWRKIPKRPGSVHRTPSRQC
# [3] = biological target: T2, Gamma-aminobutyric acid receptor subunit alpha-1/alpha-2/beta-2/gamma-2 (Homo sapiens, UniProt P14867+P18507+P47869+P47870); assay type: functional, cell-based
# [4] = biological target: T2, Gamma-aminobutyric acid receptor subunit alpha-1/alpha-2/beta-2/gamma-2; assay type: functional, cell-based; remark: listed apart in the source
# Histamine H2 receptor = Histamine H2 receptor (Homo sapiens, UniProt P25021)
# Chain of Histamine H2 receptor (P25021 whole entry): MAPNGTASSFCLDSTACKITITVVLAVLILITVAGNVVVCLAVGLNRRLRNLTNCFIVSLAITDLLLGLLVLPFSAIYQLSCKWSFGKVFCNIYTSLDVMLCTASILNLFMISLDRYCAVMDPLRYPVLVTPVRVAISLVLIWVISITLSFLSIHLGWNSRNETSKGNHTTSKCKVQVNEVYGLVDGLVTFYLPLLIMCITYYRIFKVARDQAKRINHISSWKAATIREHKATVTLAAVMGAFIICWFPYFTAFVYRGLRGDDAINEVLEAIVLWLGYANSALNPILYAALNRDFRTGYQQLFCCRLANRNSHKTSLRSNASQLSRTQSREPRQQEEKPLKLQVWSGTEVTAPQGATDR
# [5] = biological target: 5-hydroxytryptamine receptor 2B (Homo sapiens, UniProt P41595)
# Chain of 5-hydroxytryptamine receptor 2B (P41595 whole entry): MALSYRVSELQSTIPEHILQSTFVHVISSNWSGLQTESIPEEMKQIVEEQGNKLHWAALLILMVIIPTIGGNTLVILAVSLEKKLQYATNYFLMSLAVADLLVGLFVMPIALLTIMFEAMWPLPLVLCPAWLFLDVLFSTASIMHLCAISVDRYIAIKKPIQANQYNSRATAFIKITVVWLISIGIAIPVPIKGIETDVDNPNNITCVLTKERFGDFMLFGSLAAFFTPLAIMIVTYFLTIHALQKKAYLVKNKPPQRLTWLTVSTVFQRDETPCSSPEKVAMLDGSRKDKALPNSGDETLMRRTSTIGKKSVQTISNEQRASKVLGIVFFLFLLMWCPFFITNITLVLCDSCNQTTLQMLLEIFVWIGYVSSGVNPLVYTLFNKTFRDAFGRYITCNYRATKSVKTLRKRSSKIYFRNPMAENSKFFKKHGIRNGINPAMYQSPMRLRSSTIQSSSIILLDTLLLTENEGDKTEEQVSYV
# D(1A) dopamine receptor = D(1A) dopamine receptor (Homo sapiens, UniProt P21728)
# Chain of D(1A) dopamine receptor (P21728 whole entry): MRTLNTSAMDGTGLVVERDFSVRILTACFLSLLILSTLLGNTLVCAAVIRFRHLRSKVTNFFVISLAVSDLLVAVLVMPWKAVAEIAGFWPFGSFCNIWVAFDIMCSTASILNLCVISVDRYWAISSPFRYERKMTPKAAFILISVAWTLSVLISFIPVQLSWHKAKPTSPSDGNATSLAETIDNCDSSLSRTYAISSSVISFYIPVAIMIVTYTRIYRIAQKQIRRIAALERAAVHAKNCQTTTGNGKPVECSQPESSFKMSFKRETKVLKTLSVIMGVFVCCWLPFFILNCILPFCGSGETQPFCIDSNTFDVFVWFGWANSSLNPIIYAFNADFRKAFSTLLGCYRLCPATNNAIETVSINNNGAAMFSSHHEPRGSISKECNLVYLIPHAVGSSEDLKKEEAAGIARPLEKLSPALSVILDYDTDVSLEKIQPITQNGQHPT
# [6] = biological target: T3, Corticotropin-releasing factor receptor 2 (Homo sapiens, UniProt Q13324)
# T3 sequence (Q13324 whole entry): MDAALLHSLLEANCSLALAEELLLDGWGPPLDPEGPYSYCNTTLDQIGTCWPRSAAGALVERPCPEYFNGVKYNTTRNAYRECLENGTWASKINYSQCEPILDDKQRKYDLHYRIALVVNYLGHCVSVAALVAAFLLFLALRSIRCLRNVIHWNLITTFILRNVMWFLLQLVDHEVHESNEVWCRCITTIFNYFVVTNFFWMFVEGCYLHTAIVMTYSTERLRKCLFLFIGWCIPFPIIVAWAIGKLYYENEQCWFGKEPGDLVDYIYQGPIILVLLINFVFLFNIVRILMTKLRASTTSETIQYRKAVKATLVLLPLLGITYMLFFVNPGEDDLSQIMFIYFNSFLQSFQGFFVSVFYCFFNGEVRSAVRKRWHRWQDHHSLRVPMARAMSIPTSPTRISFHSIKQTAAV
# [7] = biological target: T4, Alpha-2A adrenergic receptor (Homo sapiens, UniProt P08913)
# T4 sequence (P08913 whole entry): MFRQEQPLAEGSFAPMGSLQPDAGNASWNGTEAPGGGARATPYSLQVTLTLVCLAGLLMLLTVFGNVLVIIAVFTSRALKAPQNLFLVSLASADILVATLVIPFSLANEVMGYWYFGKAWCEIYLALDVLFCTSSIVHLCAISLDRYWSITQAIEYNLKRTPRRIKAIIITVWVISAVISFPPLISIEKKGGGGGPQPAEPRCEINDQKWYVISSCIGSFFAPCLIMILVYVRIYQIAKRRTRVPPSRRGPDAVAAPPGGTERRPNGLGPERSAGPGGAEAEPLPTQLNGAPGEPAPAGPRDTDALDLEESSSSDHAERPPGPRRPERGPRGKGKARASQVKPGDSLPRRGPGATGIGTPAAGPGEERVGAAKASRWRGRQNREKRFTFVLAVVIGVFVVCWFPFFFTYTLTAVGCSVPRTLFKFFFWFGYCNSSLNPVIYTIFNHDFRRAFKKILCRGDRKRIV
# Glucagon receptor = Glucagon receptor (Homo sapiens, UniProt P47871)
# Chain of Glucagon receptor (P47871 whole entry): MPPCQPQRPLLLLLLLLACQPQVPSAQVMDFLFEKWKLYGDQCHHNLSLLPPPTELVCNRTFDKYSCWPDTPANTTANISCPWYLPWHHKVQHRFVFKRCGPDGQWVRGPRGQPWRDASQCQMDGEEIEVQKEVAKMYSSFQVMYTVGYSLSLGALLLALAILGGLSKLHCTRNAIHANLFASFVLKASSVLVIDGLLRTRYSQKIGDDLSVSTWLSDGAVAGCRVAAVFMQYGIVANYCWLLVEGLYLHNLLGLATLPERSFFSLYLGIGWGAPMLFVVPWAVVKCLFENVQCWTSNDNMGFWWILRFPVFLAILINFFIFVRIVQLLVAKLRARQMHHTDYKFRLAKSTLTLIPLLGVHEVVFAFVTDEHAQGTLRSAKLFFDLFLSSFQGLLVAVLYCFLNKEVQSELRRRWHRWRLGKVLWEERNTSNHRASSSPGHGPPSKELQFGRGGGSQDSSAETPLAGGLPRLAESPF
# [8] = biological target: T5, Muscarinic acetylcholine receptor M2 (Homo sapiens, UniProt P08172)
# T5 sequence (P08172 whole entry): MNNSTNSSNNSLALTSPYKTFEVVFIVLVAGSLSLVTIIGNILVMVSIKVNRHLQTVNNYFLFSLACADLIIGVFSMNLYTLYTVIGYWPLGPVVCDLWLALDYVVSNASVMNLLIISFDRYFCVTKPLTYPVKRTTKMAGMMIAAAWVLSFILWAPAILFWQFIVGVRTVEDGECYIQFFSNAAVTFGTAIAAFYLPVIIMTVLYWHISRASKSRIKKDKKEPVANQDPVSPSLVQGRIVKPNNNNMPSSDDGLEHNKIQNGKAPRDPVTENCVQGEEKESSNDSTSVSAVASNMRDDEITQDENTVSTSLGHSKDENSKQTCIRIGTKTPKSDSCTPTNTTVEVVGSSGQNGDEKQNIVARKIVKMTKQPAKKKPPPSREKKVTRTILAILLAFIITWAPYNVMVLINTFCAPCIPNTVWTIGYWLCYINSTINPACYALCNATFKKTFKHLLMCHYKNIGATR
# [9] = biological target: T6, Alpha-1A adrenergic receptor (Homo sapiens, UniProt P35348)
# T6 sequence (P35348 whole entry): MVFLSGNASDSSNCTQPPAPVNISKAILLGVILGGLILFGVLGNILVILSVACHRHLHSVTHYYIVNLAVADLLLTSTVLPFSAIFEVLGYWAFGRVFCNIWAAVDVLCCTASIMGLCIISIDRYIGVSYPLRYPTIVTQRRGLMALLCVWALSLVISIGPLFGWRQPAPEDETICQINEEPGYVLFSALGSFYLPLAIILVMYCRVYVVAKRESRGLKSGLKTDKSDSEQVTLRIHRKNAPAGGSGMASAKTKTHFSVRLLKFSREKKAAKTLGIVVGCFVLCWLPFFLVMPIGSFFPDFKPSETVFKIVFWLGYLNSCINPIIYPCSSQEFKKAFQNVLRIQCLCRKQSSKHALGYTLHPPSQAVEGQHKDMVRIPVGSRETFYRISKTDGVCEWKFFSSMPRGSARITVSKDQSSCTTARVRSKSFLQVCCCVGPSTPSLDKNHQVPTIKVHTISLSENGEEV
# [10] = biological target: 5-hydroxytryptamine receptor 7 (Homo sapiens, UniProt P34969)
# Chain of 5-hydroxytryptamine receptor 7 (P34969 whole entry): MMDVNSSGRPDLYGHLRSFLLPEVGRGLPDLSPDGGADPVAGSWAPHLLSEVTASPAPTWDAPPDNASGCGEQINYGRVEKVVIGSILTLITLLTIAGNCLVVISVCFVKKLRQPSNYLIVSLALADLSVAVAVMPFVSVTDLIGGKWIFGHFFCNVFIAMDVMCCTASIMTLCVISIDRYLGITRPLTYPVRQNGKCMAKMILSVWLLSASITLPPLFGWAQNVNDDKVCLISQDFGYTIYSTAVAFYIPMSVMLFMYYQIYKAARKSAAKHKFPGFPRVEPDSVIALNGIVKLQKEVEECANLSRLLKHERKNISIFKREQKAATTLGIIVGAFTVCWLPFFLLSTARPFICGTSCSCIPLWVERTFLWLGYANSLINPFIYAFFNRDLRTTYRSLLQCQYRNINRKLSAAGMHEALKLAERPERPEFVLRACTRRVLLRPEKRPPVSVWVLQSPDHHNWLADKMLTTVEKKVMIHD
# Estrogen receptor beta = Estrogen receptor beta (Homo sapiens, UniProt Q92731)
# Chain of Estrogen receptor beta (Q92731 whole entry): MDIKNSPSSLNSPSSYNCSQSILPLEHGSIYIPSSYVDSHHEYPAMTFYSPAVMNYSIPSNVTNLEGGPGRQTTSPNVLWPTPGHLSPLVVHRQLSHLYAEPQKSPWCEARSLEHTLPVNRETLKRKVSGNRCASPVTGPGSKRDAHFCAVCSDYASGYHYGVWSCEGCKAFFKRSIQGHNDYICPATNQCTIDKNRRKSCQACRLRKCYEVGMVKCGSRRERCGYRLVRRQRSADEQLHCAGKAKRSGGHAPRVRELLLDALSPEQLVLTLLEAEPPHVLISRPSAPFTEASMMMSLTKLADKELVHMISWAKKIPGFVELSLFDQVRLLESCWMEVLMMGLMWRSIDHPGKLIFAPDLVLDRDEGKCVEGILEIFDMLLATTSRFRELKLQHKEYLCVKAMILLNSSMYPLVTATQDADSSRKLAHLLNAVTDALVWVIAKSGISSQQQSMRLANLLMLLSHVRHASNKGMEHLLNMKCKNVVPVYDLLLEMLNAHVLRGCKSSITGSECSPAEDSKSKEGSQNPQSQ
# Cannabinoid receptor 1 = Cannabinoid receptor 1 (Homo sapiens, UniProt P21554); assay type: functional
# Chain of Cannabinoid receptor 1 (P21554 whole entry): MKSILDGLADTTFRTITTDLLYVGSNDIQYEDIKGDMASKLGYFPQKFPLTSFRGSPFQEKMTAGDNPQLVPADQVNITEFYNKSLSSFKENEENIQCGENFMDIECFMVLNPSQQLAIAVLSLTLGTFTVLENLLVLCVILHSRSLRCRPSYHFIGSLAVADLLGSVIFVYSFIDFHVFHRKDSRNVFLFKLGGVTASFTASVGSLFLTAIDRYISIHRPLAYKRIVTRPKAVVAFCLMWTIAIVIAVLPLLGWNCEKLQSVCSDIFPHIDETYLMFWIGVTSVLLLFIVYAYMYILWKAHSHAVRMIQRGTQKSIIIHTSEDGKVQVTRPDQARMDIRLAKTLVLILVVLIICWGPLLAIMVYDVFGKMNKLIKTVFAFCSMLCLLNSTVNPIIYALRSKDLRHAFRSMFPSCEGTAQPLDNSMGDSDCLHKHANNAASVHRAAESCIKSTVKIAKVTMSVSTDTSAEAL
# Note: assay procedure not described here.
# Chain of 5-hydroxytryptamine receptor 2A (P28223 whole entry): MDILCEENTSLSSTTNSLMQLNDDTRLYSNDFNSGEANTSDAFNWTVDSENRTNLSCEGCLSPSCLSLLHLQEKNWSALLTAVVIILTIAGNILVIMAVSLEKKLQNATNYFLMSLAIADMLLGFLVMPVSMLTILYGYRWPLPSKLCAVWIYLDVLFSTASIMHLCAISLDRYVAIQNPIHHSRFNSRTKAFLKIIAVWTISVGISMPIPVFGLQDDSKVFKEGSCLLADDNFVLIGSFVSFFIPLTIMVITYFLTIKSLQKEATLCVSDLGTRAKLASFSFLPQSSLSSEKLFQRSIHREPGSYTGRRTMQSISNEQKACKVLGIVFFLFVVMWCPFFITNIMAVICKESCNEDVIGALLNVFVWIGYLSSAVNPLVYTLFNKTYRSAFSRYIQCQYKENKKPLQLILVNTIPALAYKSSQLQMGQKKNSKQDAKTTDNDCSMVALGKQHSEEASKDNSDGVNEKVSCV
smiles,measurement,setting,value
O=C(O)c1cccc(-c2noc(-c3ccccc3F)n2)c1,AC50,[1],> 10 µM
CO/N=C(\C(=O)N[C@@H]1C(=O)N2C(C(=O)OCOC(=O)C(C)(C)C)=C(C)CS[C@H]12)c1csc(N)n1,AC50,[2],> 30 µM
same,AC50,[3],> 30 µM
same,AC50,[4],> 30 µM
O=C(Cn1ccnc1[N+](=O)[O-])NCc1ccccc1 [BENZNIDAZOLE],AC50,[2],> 30 µM
CCCC(=O)N1CCCN(c2nc(N)c3cc(OC)c(OC)cc3n2)CC1 [BUNAZOSIN],AC50,[3],> 30 µM
same,AC50,[4],> 30 µM
C[N+](C)(C)CCOC(N)=O [CARBAMOYLCHOLINE],AC50,[4],> 30 µM
COCC1=C(C(=O)OC(C)OC(=O)OC(C)C)N2C(=O)[C@@H](NC(=O)/C(=N\OC)c3csc(N)n3)[C@H]2SC1 (stereo partly drawn) [CEFPODOXIME PROXETIL],AC50,[2],> 30 µM
same,AC50,[3],> 30 µM
same,AC50,[4],> 30 µM
CC(C)(N)Cc1ccc(Cl)cc1 [CHLORPHENTERMINE],AC50,Histamine H2 receptor,> 10 µM
same,AC50,[5],3 µM
same,AC50,D(1A) dopamine receptor,> 10 µM
same,AC50,[6],> 30 µM
same,AC50,[7],> 10 µM
same,AC50,Glucagon receptor,> 30 µM
same,AC50,[8],> 10 µM
same,AC50,[1],9.06 µM
NS(=O)(=O)c1cc2c(cc1Cl)NC(CC1CCCC1)NS2(=O)=O (stereo not drawn) [CYCLOPENTHIAZIDE],AC50,[2],> 30 µM
same,AC50,[3],> 30 µM
same,AC50,[4],> 30 µM
Nc1nc(-n2cc(C(=O)O)c(=O)c3cc(F)c(N4CC(O)C4)c(Cl)c32)c(F)cc1F [DELAFLOXACIN],AC50,[2],> 30 µM
O=C(Nc1ccccc1)OCC(CN1CCCCC1)OC(=O)Nc1ccccc1 (stereo not drawn) [DIPERODON],AC50,Histamine H2 receptor,> 10 µM
same,AC50,[5],1.96 µM
same,AC50,[9],> 10 µM
same,AC50,D(1A) dopamine receptor,> 10 µM
same,AC50,[10],> 10 µM
same,AC50,[6],> 30 µM
same,AC50,Estrogen receptor beta,> 30 µM
same,AC50,[7],> 10 µM
same,AC50,Cannabinoid receptor 1,> 10 µM
same,AC50,Glucagon receptor,> 30 µM
same,AC50,[8],> 10 µM
same,AC50,[1],> 10 µM
N/N=c1/cc2c(n[nH]1)CCN(C(=O)c1ccccc1)C2 [ENDRALAZINE],AC50,[2],> 30 µM
same,AC50,[3],> 30 µM
same,AC50,[4],> 30 µM
C=C1C[C@@H]2[C@H](CC[C@]3(C)C(=O)CC[C@@H]23)[C@@]2(C)C=CC(=O)C=C12 [EXEMESTANE],AC50,[6],> 30 µM
same,AC50,Estrogen receptor beta,> 30 µM
same,AC50,Glucagon receptor,> 30 µM
same,AC50,[8],> 10 µM
same,AC50,[1],6.96 µM
CC(C)=CCC1C(=O)N(c2ccccc2)N(c2ccccc2)C1=O [FEPRAZONE],AC50,[2],> 30 µM
CC(=O)N(CC(O)CO)c1c(I)c(C(=O)NCC(O)CO)c(I)c(C(=O)NCC(O)CO)c1I (stereo not drawn) [IOHEXOL],AC50,[1],> 10 µM
CN1C(=O)N(C)C2C1N(C)C(=O)N2C (stereo not drawn) [MEBICAR],AC50,[2],> 30 µM
same,AC50,[3],> 30 µM
same,AC50,[4],> 30 µM
NC(=O)c1cccc2cn(-c3ccc([C@@H]4CCCNC4)cc3)nc12 [NIRAPARIB],AC50,[2],15.3 µM
Nc1ccc(/N=N/c2ccccc2)c(N)n1 [PHENAZOPYRIDINE],AC50,[2],> 30 µM
same,AC50,[3],> 30 µM
same,AC50,[4],> 30 µM
CN(C)CCCN1c2ccccc2Sc2ccccc21 [PROMAZINE],AC50,Histamine H2 receptor,0.111 µM
same,AC50,[5],0.192 µM
same,AC50,[9],0.0138 µM
same,AC50,D(1A) dopamine receptor,1.08 µM
same,AC50,[10],2.16 µM
same,AC50,[6],> 30 µM
same,AC50,Estrogen receptor beta,> 30 µM
same,AC50,[7],5 µM
same,AC50,Cannabinoid receptor 1,> 10 µM
same,AC50,Glucagon receptor,> 30 µM
same,AC50,[8],0.999 µM
O=C(O)CCn1c2c(c3ccccc31)C[C@H](NS(=O)(=O)c1ccc(F)cc1)CC2 [RAMATROBAN],AC50,D(1A) dopamine receptor,6.01 µM
same,AC50,Glucagon receptor,> 10 µM
O=P(O)(O)C(O)(Cc1cccnc1)P(=O)(O)O [RISEDRONIC ACID],AC50,Histamine H2 receptor,> 10 µM
same,AC50,[5],> 10 µM
same,AC50,[9],> 10 µM
same,AC50,D(1A) dopamine receptor,> 10 µM
same,AC50,[10],> 10 µM
same,AC50,[6],> 30 µM
same,AC50,[7],> 10 µM
same,AC50,Cannabinoid receptor 1,> 10 µM
same,AC50,Glucagon receptor,> 30 µM
O=C1CCC(N2C(=O)c3ccccc3C2=O)C(=O)N1 (stereo not drawn) [THALIDOMIDE],AC50,Histamine H2 receptor,> 10 µM
same,AC50,[5],> 10 µM
same,AC50,[9],> 10 µM
same,AC50,D(1A) dopamine receptor,> 10 µM
same,AC50,[6],> 30 µM
same,AC50,Estrogen receptor beta,> 30 µM
same,AC50,[7],> 10 µM
same,AC50,Glucagon receptor,> 30 µM
same,AC50,[8],> 10 µM

# — ChEMBL document CHEMBL5291721, “A preclinical secondary pharmacology resource illuminates target-adverse drug reaction associations of marketed drugs” (Nat Commun, 2023)
